Experimental data: publication PMC3959874 (European journal of dermatology : EJD, 2013)
Where two headings read alike, the source gives them in different places.

Experiments:
[1] = target: Cannabinoid CB1 (Homo sapiens, UniProt P21554); assay: Radioligand binding assay; conditions: read-out: Percent inhibition of specific radioligand binding
[2] = target: CYP3A4 (Homo sapiens, UniProt P08684); assay: Cytochrome P450 enzyme assay; type: in vitro ADME; conditions: human
[3] = target: Interleukin IL-1 (Mus musculus, UniProt P13504); assay: Radioligand binding assay; conditions: read-out: Percent inhibition of specific radioligand binding
[4] = Serum drug concentration after topical skin application; conditions: C57BL/6, mouse, serum
[5] = target: Transporter, Norepinephrine (NET) (Homo sapiens, UniProt P23975); assay: Radioligand binding assay; conditions: read-out: Percent inhibition of specific radioligand binding
[6] = target: CYP2C19 (Homo sapiens, UniProt P33261); assay: Cytochrome P450 enzyme assay; type: in vitro ADME; conditions: human
[7] = test system: Potassium Channel [KATP]; assay: Radioligand binding assay; set-up: species or system human; conditions: 10 μM; 25 °C, 120 min
[8] = target: Dopamine D4.2 (Homo sapiens, UniProt P21917, DEL265-296); assay: Radioligand binding assay; conditions: read-out: Percent inhibition of specific radioligand binding
[9] = target: Bradykinin B1 (Homo sapiens, UniProt P46663); assay: Radioligand binding assay; conditions: read-out: Percent inhibition of specific radioligand binding
[10] = target: Estrogen ERa (Homo sapiens, UniProt P03372); assay: Radioligand binding assay; conditions: read-out: Percent inhibition of specific radioligand binding
[11] = target: CYP1A2 (Homo sapiens, UniProt P05177); assay: Cytochrome P450 enzyme assay; type: in vitro ADME; conditions: human
[12] = test system: Glutamate, NMDA, Agonism; assay: Radioligand binding assay; set-up: species or system rat; conditions: 10 μM; 4 °C, 20 min
[13] = target: Transporter, GABA (Rattus norvegicus, UniProt P23978); assay: Radioligand binding assay; conditions: read-out: Percent inhibition of specific radioligand binding
[14] = target: Epidermal Growth Factor (EG F) (Homo sapiens, UniProt P00533); assay: Radioligand binding assay; conditions: read-out: Percent inhibition of specific radioligand binding
[15] = target: Adrenergic β1 (Homo sapiens, UniProt P08588); assay: Radioligand binding assay; conditions: read-out: Percent inhibition of specific radioligand binding
[16] = target: Nicotinic Acetylcholine a1, Bungarotoxin (Homo sapiens, UniProt P02708+P07510+Q07001); assay: Radioligand binding assay; conditions: read-out: Percent inhibition of specific radioligand binding
[17] = target: Muscarinic M2 (Homo sapiens, UniProt P08172); assay: Radioligand binding assay; conditions: read-out: Percent inhibition of specific radioligand binding
[18] = target: Endothelin ETB (Homo sapiens, UniProt P24530); assay: Radioligand binding assay; conditions: read-out: Percent inhibition of specific radioligand binding
[19] = test system: Purinergic P2x; assay: Radioligand binding assay; set-up: species or system rabbit; conditions: 10 μM; 25 °C, 30 min
[20] = target: Leukotriene, Cysteinyl CysLT 1 (Homo sapiens, UniProt Q9Y271); assay: Radioligand binding assay; conditions: read-out: Percent inhibition of specific radioligand binding
[21] = test system: Glutamate, Kainate; assay: Radioligand binding assay; set-up: species or system rat; conditions: 10 μM; 4 °C, 60 min
[22] = target: Bradykinin B2 (Homo sapiens, UniProt P30411); assay: Radioligand binding assay; conditions: read-out: Percent inhibition of specific radioligand binding
[23] = target: Histamine H3 (Homo sapiens, UniProt Q9Y5N1); assay: Radioligand binding assay; conditions: read-out: Percent inhibition of specific radioligand binding
[24] = target: hERG potassium channel (Homo sapiens, UniProt Q12809); assay: Radioligand binding assay; conditions: human
[25] = target: CYP2D6 (Homo sapiens, UniProt P10635); assay: Cytochrome P450 enzyme assay; type: in vitro ADME; conditions: human
[26] = target: Neuropeptide Y Y2 (Homo sapiens, UniProt P49146); assay: Radioligand binding assay; conditions: read-out: Percent inhibition of specific radioligand binding
[27] = target: Dopamine D1 (Homo sapiens, UniProt P21728); assay: Radioligand binding assay; conditions: read-out: Percent inhibition of specific radioligand binding
[28] = test system: GABAA, Muscimol, Central; assay: Radioligand binding assay; set-up: species or system rat; conditions: 10 μM; 4 °C, 10 min
[29] = target: Glucocorticoid (Homo sapiens, UniProt P04150); assay: Radioligand binding assay; conditions: read-out: Percent inhibition of specific radioligand binding
[30] = test system: Imidazoline I2, Central; assay: Radioligand binding assay; set-up: species or system rat; conditions: 10 μM; 25 °C, 30 min
[31] = target: CYP2C9 (Homo sapiens, UniProt P11712); assay: Cytochrome P450 enzyme assay; type: in vitro ADME; conditions: human
[32] = target: Glutamate, NMDA, Glycine (Rattus norvegicus, UniProt P35439); assay: Radioligand binding assay; conditions: read-out: Percent inhibition of specific radioligand binding
[33] = target: Calcium Channel N-Type (Rattus norvegicus, UniProt Q02294); assay: Radioligand binding assay; conditions: read-out: Percent inhibition of specific radioligand binding
[34] = test system: Purinergic P2,; assay: Radioligand binding assay; set-up: species or system rat; conditions: 10 μM; 25 °C, 60 min
[35] = target: Adenosine A1 (Homo sapiens, UniProt P30542); assay: Radioligand binding assay; conditions: read-out: Percent inhibition of specific radioligand binding
[36] = test system: Thyroid Hormone; assay: Radioligand binding assay; set-up: species or system rat; conditions: 10 μM; 4 °C, 18 hrs
[37] = test system: GABAA, Flunitrazepam, Cent ral; assay: Radioligand binding assay; set-up: species or system rat; conditions: 10 μM; 25 °C, 120 min
[38] = test system: Glutamate, NMDA, Phencyclidine; assay: Radioligand binding assay; set-up: species or system rat; conditions: 10 μM; 25 °C, 45 min
[39] = test system: Nicotinic Acetylcholine; assay: Radioligand binding assay; set-up: species or system human; conditions: 10 μM; 25 °C, 60 min
[40] = test system: Phorbol Ester; assay: Radioligand binding assay; set-up: species or system mouse; conditions: 10 μM; 25 °C, 60 min
[41] = target: Androgen (Testosterone) AR (Rattus norvegicus, UniProt P15207); assay: Radioligand binding assay; conditions: read-out: Percent inhibition of specific radioligand binding
[42] = target: Opiate 51 (OP1, DOP) (Homo sapiens, UniProt P41143); assay: Radioligand binding assay; conditions: read-out: Percent inhibition of specific radioligand binding
[43] = test system: human PBMC; conditions: up to 1 μM; ref [24]; cited from earlier work
[44] = test system: Calcium Channel L-Type, Dihydropyridine; assay: Radioligand binding assay; set-up: species or system rat; conditions: 10 μM; 25 °C, 90 min
[45] = type: in vivo, mice; conditions: for Body weight change after a single intravenous injection of the MTD: 150 mg/kg TMX-202 or 15 mg/kg IMQ i.v. (figure 4)
[46] = target: Serotonin (5-Hydroxytryptam ine) 5-HT1A (Homo sapiens, UniProt P08908); assay: Radioligand binding assay; conditions: read-out: Percent inhibition of specific radioligand binding
[47] = target: Platelet Activating Factor (PA F) (Homo sapiens, UniProt P25105); assay: Radioligand binding assay; conditions: read-out: Percent inhibition of specific radioligand binding
[48] = test system: Calcium Channel L-Type, Benzothiazepine; assay: Radioligand binding assay; set-up: species or system rat; conditions: 10 μM; 4 °C, 180 min
[49] = target: Serotonin (5-Hydroxytryptam ine) 5-HT2B (Homo sapiens, UniProt P41595); assay: Radioligand binding assay; conditions: read-out: Percent inhibition of specific radioligand binding
[50] = target: Prostanoid EP4 (Homo sapiens, UniProt P35408); assay: Radioligand binding assay; conditions: read-out: Percent inhibition of specific radioligand binding
Chain of Prostanoid EP4 (P35408 whole entry): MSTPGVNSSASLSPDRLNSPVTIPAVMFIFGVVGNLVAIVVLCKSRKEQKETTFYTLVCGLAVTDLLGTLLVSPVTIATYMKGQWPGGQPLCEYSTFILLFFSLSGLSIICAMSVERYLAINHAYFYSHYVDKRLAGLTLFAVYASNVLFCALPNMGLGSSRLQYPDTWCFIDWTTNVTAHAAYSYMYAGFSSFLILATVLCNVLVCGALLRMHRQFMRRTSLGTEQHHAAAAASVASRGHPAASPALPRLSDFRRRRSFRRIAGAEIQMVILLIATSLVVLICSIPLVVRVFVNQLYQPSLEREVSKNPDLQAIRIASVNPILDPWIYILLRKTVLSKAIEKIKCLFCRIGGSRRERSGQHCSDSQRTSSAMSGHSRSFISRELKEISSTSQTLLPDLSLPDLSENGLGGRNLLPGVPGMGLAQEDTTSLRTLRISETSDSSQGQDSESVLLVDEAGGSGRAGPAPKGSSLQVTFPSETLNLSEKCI

Chain of CYP2C19 (P33261 whole entry): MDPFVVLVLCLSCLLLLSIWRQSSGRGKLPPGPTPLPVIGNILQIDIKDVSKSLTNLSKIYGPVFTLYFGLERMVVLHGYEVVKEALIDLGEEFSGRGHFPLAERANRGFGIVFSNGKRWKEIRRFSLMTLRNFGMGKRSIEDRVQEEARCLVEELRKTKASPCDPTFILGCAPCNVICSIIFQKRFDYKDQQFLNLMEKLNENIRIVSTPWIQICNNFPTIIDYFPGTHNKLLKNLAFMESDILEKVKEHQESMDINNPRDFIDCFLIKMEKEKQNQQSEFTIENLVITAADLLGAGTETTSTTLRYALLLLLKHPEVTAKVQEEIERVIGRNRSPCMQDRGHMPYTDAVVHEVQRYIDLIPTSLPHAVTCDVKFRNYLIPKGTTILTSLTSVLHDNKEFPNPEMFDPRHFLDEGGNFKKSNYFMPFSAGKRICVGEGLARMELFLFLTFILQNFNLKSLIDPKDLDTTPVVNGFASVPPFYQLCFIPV
Chain of Epidermal Growth Factor (EG F) (P00533 25-1210): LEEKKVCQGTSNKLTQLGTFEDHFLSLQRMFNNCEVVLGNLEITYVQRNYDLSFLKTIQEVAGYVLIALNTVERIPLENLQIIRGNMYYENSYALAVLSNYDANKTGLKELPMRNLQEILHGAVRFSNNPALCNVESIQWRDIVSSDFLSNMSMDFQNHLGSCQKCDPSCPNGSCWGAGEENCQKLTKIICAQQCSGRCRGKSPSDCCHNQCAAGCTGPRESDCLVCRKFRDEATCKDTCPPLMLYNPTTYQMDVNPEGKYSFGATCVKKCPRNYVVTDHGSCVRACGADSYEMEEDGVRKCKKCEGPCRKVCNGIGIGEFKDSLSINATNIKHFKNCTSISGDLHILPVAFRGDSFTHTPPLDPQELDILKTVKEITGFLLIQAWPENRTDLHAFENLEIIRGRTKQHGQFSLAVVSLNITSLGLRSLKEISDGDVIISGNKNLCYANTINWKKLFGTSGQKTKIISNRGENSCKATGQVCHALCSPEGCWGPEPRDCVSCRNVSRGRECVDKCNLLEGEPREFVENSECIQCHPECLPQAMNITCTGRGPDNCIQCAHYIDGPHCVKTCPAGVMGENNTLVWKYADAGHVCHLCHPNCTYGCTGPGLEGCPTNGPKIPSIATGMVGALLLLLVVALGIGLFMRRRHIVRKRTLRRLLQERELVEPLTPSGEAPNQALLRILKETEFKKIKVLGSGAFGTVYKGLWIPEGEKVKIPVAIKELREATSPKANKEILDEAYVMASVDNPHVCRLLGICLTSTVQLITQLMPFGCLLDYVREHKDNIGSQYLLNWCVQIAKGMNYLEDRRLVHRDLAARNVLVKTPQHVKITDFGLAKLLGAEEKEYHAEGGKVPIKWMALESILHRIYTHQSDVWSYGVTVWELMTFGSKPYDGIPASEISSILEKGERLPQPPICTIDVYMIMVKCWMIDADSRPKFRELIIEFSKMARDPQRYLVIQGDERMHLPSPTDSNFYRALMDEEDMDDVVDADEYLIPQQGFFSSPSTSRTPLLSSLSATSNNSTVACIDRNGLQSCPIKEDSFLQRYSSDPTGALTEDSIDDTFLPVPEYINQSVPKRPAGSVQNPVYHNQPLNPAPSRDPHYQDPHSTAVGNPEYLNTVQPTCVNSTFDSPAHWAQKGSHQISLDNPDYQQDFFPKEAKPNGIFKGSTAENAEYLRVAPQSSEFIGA
Chain of Muscarinic M2 (P08172 whole entry): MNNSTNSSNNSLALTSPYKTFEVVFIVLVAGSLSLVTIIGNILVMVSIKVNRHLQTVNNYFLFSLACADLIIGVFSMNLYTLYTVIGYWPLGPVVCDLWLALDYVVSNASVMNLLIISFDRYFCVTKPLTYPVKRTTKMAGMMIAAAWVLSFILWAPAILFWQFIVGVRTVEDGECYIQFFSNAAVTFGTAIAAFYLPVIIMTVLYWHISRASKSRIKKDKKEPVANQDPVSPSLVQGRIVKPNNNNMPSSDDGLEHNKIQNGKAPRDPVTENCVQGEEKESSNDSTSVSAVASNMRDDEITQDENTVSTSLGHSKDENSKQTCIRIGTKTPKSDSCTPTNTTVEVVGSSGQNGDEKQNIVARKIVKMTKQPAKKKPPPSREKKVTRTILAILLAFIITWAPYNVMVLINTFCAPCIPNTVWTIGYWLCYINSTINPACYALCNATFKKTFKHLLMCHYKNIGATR
Chain of Transporter, Norepinephrine (NET) (P23975 whole entry): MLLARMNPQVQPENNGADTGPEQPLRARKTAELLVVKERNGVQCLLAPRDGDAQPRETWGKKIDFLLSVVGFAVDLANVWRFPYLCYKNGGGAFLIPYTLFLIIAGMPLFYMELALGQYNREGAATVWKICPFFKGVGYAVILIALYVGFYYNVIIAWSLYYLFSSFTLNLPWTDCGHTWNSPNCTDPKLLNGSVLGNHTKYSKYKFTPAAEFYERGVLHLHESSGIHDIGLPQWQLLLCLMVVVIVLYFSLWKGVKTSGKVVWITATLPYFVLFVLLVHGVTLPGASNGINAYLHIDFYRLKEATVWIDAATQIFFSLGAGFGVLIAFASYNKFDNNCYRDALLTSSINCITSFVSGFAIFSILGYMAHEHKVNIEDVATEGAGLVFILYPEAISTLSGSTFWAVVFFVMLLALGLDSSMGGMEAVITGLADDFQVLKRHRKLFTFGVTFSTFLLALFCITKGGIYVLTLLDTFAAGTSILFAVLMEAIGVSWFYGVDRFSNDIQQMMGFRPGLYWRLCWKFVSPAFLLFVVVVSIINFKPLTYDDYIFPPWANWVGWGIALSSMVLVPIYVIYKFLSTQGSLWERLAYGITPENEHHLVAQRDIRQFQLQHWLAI
Chain of CYP2C9 (P11712 whole entry): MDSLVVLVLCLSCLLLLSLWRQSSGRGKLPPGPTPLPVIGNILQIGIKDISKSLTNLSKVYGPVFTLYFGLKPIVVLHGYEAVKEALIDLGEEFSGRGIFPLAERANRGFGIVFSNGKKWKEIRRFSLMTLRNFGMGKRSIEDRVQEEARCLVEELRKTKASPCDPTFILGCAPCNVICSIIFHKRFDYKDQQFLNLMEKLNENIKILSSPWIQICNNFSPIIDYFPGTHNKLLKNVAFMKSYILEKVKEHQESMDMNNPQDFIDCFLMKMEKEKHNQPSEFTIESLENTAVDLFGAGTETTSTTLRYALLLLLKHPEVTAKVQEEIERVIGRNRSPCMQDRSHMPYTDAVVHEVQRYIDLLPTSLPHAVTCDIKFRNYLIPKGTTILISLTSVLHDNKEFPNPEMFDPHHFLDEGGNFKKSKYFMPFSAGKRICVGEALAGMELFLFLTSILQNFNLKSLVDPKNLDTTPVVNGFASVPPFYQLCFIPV
Chain of Histamine H3 (Q9Y5N1 whole entry): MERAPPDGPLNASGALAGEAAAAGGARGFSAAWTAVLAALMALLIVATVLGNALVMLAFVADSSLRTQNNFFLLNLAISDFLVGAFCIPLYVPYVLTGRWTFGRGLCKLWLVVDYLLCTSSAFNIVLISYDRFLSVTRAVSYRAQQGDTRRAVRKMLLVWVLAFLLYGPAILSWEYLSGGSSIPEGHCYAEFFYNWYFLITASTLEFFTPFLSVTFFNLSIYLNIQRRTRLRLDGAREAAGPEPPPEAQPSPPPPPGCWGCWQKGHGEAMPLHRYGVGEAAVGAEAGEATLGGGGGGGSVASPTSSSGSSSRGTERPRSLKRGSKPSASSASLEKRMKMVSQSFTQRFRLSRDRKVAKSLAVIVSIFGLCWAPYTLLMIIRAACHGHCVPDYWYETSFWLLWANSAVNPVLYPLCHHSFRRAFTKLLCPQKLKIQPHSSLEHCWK
Chain of Bradykinin B1 (P46663 whole entry): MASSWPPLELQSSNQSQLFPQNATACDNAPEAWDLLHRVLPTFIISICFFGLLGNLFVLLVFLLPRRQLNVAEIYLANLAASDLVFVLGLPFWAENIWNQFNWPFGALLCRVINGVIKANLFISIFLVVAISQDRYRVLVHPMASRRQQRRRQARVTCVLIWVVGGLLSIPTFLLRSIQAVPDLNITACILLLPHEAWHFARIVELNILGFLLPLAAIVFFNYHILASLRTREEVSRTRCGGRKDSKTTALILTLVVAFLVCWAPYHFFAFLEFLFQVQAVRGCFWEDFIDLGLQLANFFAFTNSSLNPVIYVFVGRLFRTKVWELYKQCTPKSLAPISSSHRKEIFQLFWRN
Chain of Adrenergic β1 (P08588 whole entry): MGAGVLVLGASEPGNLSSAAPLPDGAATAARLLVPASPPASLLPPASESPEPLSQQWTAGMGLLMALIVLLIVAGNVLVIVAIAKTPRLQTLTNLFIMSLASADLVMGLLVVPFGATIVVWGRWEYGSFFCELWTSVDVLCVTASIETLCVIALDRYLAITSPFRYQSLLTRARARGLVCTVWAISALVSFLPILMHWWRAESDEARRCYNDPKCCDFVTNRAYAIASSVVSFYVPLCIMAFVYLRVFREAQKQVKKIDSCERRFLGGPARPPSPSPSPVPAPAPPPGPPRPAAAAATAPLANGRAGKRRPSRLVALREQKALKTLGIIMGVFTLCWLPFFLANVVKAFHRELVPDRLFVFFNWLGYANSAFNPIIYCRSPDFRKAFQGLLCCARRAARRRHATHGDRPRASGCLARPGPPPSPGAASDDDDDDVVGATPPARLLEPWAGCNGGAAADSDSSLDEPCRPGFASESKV

**Q.** For `CC(C)Cn1cnc2c(N)nc3ccccc3c21` [IMQ, imiquimod, reference compound], which inhibition at 10 µM [1] is on record?
**A.** -4%

**Q.** And the inhibition at 30 min, 10 µM [2]?
**A.** 1%

**Q.** And the inhibition at 10 µM [3]?
**A.** 5%

**Q.** What about the concentration at 1 h [4] of the same compound?
**A.** 0.139 ± 0.0612 ng/mL

**Q.** And the inhibition at 10 µM [5]?
**A.** 30%

**Q.** And the inhibition at 45 min, 10 µM [6]?
**A.** 10%

**Q.** And the “Percent inhibition of specific radioligand binding” value (“Percent inhibition” below) [7]?
**A.** −5%

**Q.** What about the inhibition at 10 µM [8] of the same compound?
**A.** 2%

**Q.** What about the inhibition at 10 µM [9] of the same compound?
**A.** 4%

**Q.** What about the inhibition at 10 µM [10] of the same compound?
**A.** 0%

**Q.** And the inhibition at 30 min, 10 µM [11]?
**A.** 66%

**Q.** What about the “Percent inhibition” value [12] of the same compound?
**A.** 2%

**Q.** And the inhibition at 10 µM [13]?
**A.** 2%

**Q.** And the inhibition at 10 µM [14]?
**A.** -1%

**Q.** And the inhibition at 10 µM [15]?
**A.** 19%

**Q.** What about the inhibition at 10 µM [16] of the same compound?
**A.** 7%

**Q.** What about the inhibition at 10 µM [17] of the same compound?
**A.** 3%

**Q.** And the inhibition at 10 µM [18]?
**A.** 0%

**Q.** What about the “Percent inhibition” value [19] of the same compound?
**A.** −7%

**Q.** What about the inhibition at 10 µM [20] of the same compound?
**A.** 10%

**Q.** And the “Percent inhibition” value [21]?
**A.** −8%

**Q.** And the inhibition at 10 µM [22]?
**A.** -1%

**Q.** What about the inhibition at 10 µM [23] of the same compound?
**A.** 4%

**Q.** And the inhibition at 60 min, 10 µM [24]?
**A.** 45%

**Q.** And the inhibition at 45 min, 10 µM [25]?
**A.** 29%

**Q.** And the inhibition at 10 µM [26]?
**A.** 6%

**Q.** What about the inhibition at 10 µM [27] of the same compound?
**A.** 66%

**Q.** What about the “Percent inhibition” value [28] of the same compound?
**A.** 19%

**Q.** What about the inhibition at 10 µM [29] of the same compound?
**A.** -2%

**Q.** What about the “Percent inhibition” value [30] of the same compound?
**A.** 57%

**Q.** And the inhibition at 45 min, 10 µM [31]?
**A.** 3%

**Q.** What about the inhibition at 10 µM [32] of the same compound?
**A.** -6%

**Q.** And the inhibition at 10 µM [33]?
**A.** 2%

**Q.** What about the “Percent inhibition” value [34] of the same compound?
**A.** 10%

**Q.** What about the inhibition at 10 µM [35] of the same compound?
**A.** 50%

**Q.** And the “Percent inhibition” value [36]?
**A.** −5%

**Q.** And the “Percent inhibition” value [37]?
**A.** 37%

**Q.** What about the “Percent inhibition” value [38] of the same compound?
**A.** 4%

**Q.** What about the “Percent inhibition” value [39] of the same compound?
**A.** 3%

**Q.** And the “Percent inhibition” value [40]?
**A.** 21%

**Q.** What about the inhibition at 10 µM [41] of the same compound?
**A.** 7%

**Q.** What about the inhibition at 10 µM [42] of the same compound?
**A.** 5%

**Q.** And the “IFN-γ secretion in human PBMC” value [43]?
**A.** does not stimulate IFN-γ secretion

**Q.** What about the “Percent inhibition” value [44] of the same compound?
**A.** −14%

**Q.** What about the MTD at 8 days ([45]; C57BL/6, mouse, in vivo, iv) of the same compound?
**A.** 15 mg/kg

**Q.** And the “MTD (molar)” value ([45]; C57BL/6 mice, intravenous administration)?
**A.** approximately 62.5 μmoles/kg

**Q.** What about the “Body weight change after a single intravenous injection of the MTD” value ([45]; Tlr7−/− or Myd88−/− mice) of the same compound?
**A.** did not result in body weight changes

**Q.** And the “Body weight change after a single intravenous injection of the MTD” value ([45]; WT mice)?
**A.** did not result in body weight changes

**Q.** And the inhibition at 10 µM [46]?
**A.** 19%

**Q.** What about the inhibition at 10 µM [47] of the same compound?
**A.** 2%

**Q.** What about the “Percent inhibition” value [48] of the same compound?
**A.** 4%

**Q.** And the inhibition at 10 µM [49]?
**A.** 45%

**Q.** And the inhibition at 10 µM [50]?
**A.** 6%
